Assay results published in ChEMBL document CHEMBL5150011, “Selection of QPX7831, an Orally Bioavailable Prodrug of Boronic Acid β-Lactamase Inhibitor QPX7728” (J Med Chem, 2021).

How the values were obtained:
[1] = Half life in human serum measured upto 30 min by HPLC analysis; type: ADME, cell-free
[2] = Half life in human liver microsomes measured upto 30 min in presence of NADPH by HPLC analysis; type: ADME, Microsome
[3] = Half life in rat liver microsomes measured upto 30 min in presence of NADPH by HPLC analysis; type: ADME, Microsome
[4] = Half life in dog liver microsomes measured upto 30 min in presence of NADPH by HPLC analysis; type: ADME, Canis lupus familiaris, Microsome
[5] = Half life in monkey liver microsomes measured upto 30 min in presence of NADPH by HPLC analysis; type: ADME, Macaca mulatta, Microsome; details: rhesus monkey
[6] = Oral bioavailability in rat at 30 mg/kg by LC/MS/MS analysis; type: ADME, organism-based; details: in vivo
[7] = Oral bioavailability in dog at 10 mg/kg by LC/MS/MS analysis; type: ADME, organism-based, Canis lupus familiaris; details: in vivo
[8] = Oral bioavailability in monkey at 20 mg/kg by LC/MS/MS analysis; type: ADME, organism-based, Macaca mulatta; details: rhesus monkey, in vivo
[9] = Solubility of compound in water at pH 7.2 using crystalline sample; type: physicochemical
[10] = Solubility of compound in water in presence of 0.5 M PBS at pH 7.0 using crystalline sample; type: physicochemical; details: water with 0.5 M PBS
[11] = Solubility of the compound in FaSSIF using crystalline sample; type: physicochemical
[12] = Solubility of the compound in FeSSIF using crystalline sample; type: physicochemical
[13] = Lipophilicity, logD of compound at pH 7.4; type: physicochemical; details: buffer
[14] = Acid dissociation constant, pKa of the compound; type: physicochemical
[15] = Oral bioavailability in rat; type: ADME, organism-based; details: in vivo
[16] = Oral bioavailability in dog; type: ADME, organism-based, Canis lupus familiaris; details: in vivo
[17] = Oral bioavailability in monkey; type: ADME, organism-based, Macaca mulatta; details: rhesus monkey, in vivo

Row | half-life [1] [min] | half-life [2] [min] | Compound | other results
1 | > 60 | > 30 | CN(C)C(=O)COC(=O)c1c(F)ccc2c1OB(O)[C@@H]1C[C@H]21 | –
2 | > 60 | 27 | O=C(OCOC(=O)c1c(F)ccc2c1OB(O)[C@@H]1C[C@H]21)OC1CCCCC1 | –
3 | 3.9 | – | O=C(OCOC(=O)C1COC1)c1c(F)ccc2c1OB(O)[C@@H]1C[C@H]21 | –
4 | 3.7 | > 30 | Cc1oc(=O)oc1COC(=O)c1c(F)ccc2c1OB(O)[C@@H]1C[C@H]21 | –
5 | 26 | 23 | O=C(OCOC(=O)C1CCOCC1)c1c(F)ccc2c1OB(O)[C@@H]1C[C@H]21 | –
6 | – | > 30 | CC(C)OC(=O)OCOC(=O)c1c(F)ccc2c1OB(O)[C@@H]1C[C@H]21 | –
7 | > 30 | 8 | CC(=O)OCOC(=O)c1c(F)ccc2c1OB(O)[C@@H]1C[C@H]21 | half-life [3]: 3 min; half-life [4]: 15 min; half-life [5]: 3 min; bioavailability [6]: 131%; bioavailability [7]: 50.1%; bioavailability [8]: 103%
8 | > 60 | > 30 | CCOC(=O)OCOC(=O)c1c(F)ccc2c1OB(O)[C@@H]1C[C@H]21 | –
9 | > 60 | 14.3 | O=C(OCOC(=O)C1CC1)c1c(F)ccc2c1OB(O)[C@@H]1C[C@H]21 | –
10 | > 60 | 28 | CCCC(=O)OCOC(=O)c1c(F)ccc2c1OB(O)[C@@H]1C[C@H]21 | half-life [3]: 3 min; half-life [4]: 11 min; half-life [5]: 2 min; bioavailability [6]: 145%; bioavailability [7]: 55.6%; bioavailability [8]: 104%
11 | > 60 | > 30 | CN(C)C(=O)COC(=O)OCOC(=O)c1c(F)ccc2c1OB(O)[C@@H]1C[C@H]21 | –
12 | – | – | CC(C)C(=O)OCOC(=O)c1c(F)ccc2c1O[B-](O)(O)[C@@H]1C[C@H]21.[Na+] | solubility [9]: > 100 mg/mL; solubility thermodynamic [10]: 10.6 mg/mL; solubility thermodynamic [11]: > 100 mg/mL; solubility thermodynamic [12]: > 100 mg/mL; logD [13]: 0.33; pKa [14]: 4.8
13 | > 30 | 24 | CC(=O)OCCOC(=O)OCOC(=O)c1c(F)ccc2c1OB(O)[C@@H]1C[C@H]21 | –
14 | > 30 | > 30 | O=C(OCOC(=O)c1c(F)ccc2c1OB(O)[C@@H]1C[C@H]21)OC1CCOCC1 | –
15 | > 60 | 9 | CC(C)C(=O)OCOC(=O)c1c(F)ccc2c1OB(O)[C@@H]1C[C@H]21 | half-life [3]: 5 min; half-life [4]: 23 min; half-life [5]: 2 min; bioavailability [6]: 125%; bioavailability [7]: 65%; bioavailability [8]: 106%
16 | – | – | O=C(O)c1c(F)ccc2c1OB(O)[C@@H]1C[C@H]21 [XERUBORBACTAM] | bioavailability [15]: 50%; bioavailability [16]: 50%; bioavailability [17]: 20%
17 | 11 | > 30 | O=C(OCOC(=O)c1c(F)ccc2c1OB(O)[C@@H]1C[C@H]21)OC1COC1 | –
18 | > 30 | > 30 | CC(=O)N1CCC[C@@H]1C(=O)OCOC(=O)c1c(F)ccc2c1OB(O)[C@@H]1C[C@H]21 | –
19 | > 60 | > 30 | COCCOC(=O)OCOC(=O)c1c(F)ccc2c1OB(O)[C@@H]1C[C@H]21 | –
